Tests used:
mouse GPR39 = molecular target: T1, mouse GPR39 (Mus musculus, UniProt Q5U431, T447P); type: cell-based; conditions: FLIPR, Fluo-3AM (FIG. 14 through FIG. 18)
T1 construct: expressed in transfected cells; host or cells: CHO cells, vector pAKKO-111H
T1 sequence (Q5U431 1-456 T447P): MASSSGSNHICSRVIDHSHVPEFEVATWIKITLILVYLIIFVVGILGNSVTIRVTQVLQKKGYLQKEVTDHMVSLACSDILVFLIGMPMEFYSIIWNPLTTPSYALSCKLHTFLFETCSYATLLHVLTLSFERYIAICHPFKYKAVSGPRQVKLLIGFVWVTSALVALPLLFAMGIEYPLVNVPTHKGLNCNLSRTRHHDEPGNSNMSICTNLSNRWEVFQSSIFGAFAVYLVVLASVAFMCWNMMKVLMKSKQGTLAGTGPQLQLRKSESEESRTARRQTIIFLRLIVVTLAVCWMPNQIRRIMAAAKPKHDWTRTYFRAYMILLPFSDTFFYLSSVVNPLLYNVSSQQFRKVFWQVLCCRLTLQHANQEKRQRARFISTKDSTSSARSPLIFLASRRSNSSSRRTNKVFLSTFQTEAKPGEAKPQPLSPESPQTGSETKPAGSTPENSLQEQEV
Description: (§1) Using the CHO cell line where rat GPR39 was stably expressed, the agonist activity of metal ions was detected using FLIPR in terms of the intracellular calcium-increasing reaction as an indicator. The CHO cell line used, wherein rat GPR39 was stably expressed, was cultured in HAM's αMEM (Invitrogen Corp.) containing 10% calf fetal serum (Invitrogen Corp.). On the day before the assay was conducted, the human GPR39-expressing CHO cell line was cultured in a culture flask to reach a confluent state. After washing with PBS, the cells were scraped off using trypsin and centrifuged for recovery. The cells were then suspended in medium and the suspension was adjusted to 3×10^5 cells/ml. Then, the suspension was dispensed onto a black walled 96-well plate (Costar) in 100 μl each per well, followed by incubation overnight in a CO2 incubator.
(§2) On the day when the assay was conducted, various test samples were added to the cells and the changes of intracellular calcium levels in this case were determined by FLIPR (Molecular Device). In order to determine the changes in intracellular calcium levels on FLIPR, the cells were pre-treated by the following procedures. First, for the purpose of adding a fluorescent dye Fluo-3AM (DOJIN) to the cells or washing the cells immediately before the FLIPR assay, an assay buffer was prepared. A solution was prepared by adding 20 ml of 1M HEPES (pH 7.4) (DOJIN) to 1000 ml of HBSS (Invitrogen Corp.) (hereinafter HBSS/HEPES solution), to which solution was added 10 ml of a solution mixture obtained by dissolving 710 mg of Probenecid (Sigma) in 5 ml of 1N NaOH and further adding 5 ml of HBSS/HEPES solution thereto. The resulting solution was used as the assay buffer. Next, 50 μg of Fluo-3AM was dissolved in 21 μl of DMSO (DOJIN) and an equal volume of 20% Pluronic acid (Molecular Probes) was added to and mixed with the solution. The mixture was then added to 10.6 ml of the assay buffer supplemented with 105 μl of fetal calf serum to prepare a fluorescent dye solution. The medium for the CHO cells where human GPR39 was stably expressed was removed. Immediately thereafter, the fluorescent dye solution was dispensed in 100 μl each/well and the cells were incubated in a CO2 incubator for an hour so that the fluorescent dye was taken up into the cells. The cells after the incubation was washed with the assay buffer described above and set on FLIPR. A test sample to be added to the CHO cells where rat GPR39 was stably expressed was prepared using the assay buffer and set on FLIPR at the same time. Following the pre-treatment above, the changes in intracellular calcium levels after the addition of each test sample were determined by FLIPR.
Using the CHO cell line where mouse GPR39 was stably expressed, the agonist activity of metal ions was detected on FLIPR in accordance with the procedures described in EXAMPLE 5, in terms of the intracellular calcium-increasing reaction as an indicator.

rat GPR39 = type: cell-based; conditions: FLIPR, Fluo-3AM (FIG. 9 through FIG. 13)
Description: as §1, §2

[1] = test system: CHO cells where the receptor was not expressed or GPCR other than GPR39 was expressed; type: cell-based; conditions: FLIPR; control cells
human GPR39 = molecular target: T2, human GPR39 (Homo sapiens, UniProt O43194); type: cell-based; parameters: expressed in transfected cells; host or cells: CHO cells, vector pAKKO-111H; conditions: FLIPR, Fluo-3AM; metal salt added, 10-300 μM (FIGS. 1-4)
T2 sequence (O43194 1-453): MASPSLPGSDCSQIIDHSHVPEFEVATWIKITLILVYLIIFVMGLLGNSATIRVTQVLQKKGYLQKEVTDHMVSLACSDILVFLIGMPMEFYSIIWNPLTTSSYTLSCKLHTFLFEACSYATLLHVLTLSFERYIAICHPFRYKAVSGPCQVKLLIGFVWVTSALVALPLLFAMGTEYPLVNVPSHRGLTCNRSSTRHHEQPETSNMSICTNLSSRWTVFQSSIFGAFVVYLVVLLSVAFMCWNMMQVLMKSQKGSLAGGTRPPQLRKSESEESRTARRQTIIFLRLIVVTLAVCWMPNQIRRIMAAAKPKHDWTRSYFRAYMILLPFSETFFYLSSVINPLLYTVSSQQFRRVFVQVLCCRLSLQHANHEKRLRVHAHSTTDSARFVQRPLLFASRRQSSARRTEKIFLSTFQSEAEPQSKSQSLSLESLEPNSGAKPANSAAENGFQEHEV
Description: The human GPR39-GFP expression vector-transfected CHO cell line produced in EXAMPLE 1 (CHO/hGPR39-GFP) was diluted in 3×10^4 cells/100 μl. The dilution was dispensed onto a Black walled 96-well plate (Costar) in 100 μl each per well, followed by incubation overnight in a CO2 incubator. Changes in intracellular calcium levels were determined by the following method using FLIPR (Molecular Device). In 21 μl of DMSO (DOJIN), 50 μg of Fluo-3AM (DOJIN) was dissolved and an equal volume of 20% Pluronic acid (Molecular Probes) was added to the solution. After mixing them, the resulting mixture was added to 10.6 ml of assay buffer [prepared by adding 20 ml of 1M HEPES (pH 7.4) (DOJIN) to HBSS (Invitrogen Corp.) and further adding to the solution 10 ml of a solution mixture, which mixture was prepared by dissolving 710 mg of Probenecid (Sigma) in 5 ml of 1N NaOH and then adding thereto 5 ml of the HBSS/HEPES solution above] supplemented with 105 μl of fetal calf serum to prepare a fluorescent dye solution. The medium in the cell plate was removed. Immediately thereafter, the fluorescent dye solution was dispensed in 100 μl each/well and the cells were incubated in a CO2 incubator for an hour so that the fluorescent dye was taken up into the cells. The cells after the incubation were washed with the assay buffer described above and set on FLIPR. Compounds of metal elements to be added to the cells were diluted to the respective concentration with the assay buffer. The dilutions were dispensed onto plates for ligands and set on FLIPR. Following the pre-treatment above, changes in intracellular calcium levels after addition of metal elements were determined by FLIPR to study agonist activities.

[2] = test system: bladder (micturition) of conscious rats; experiment: Cystometry in conscious rats with intravesical infusion; type: in vivo, rat; conditions: female SD rats, protamine sulfate 10 mg/mL in PBS infused into the bladder for an hour
Description: Female SD rats of 9-10 weeks old were anaesthetized by intramuscular injection with 0.1 ml/100 g of a solution obtained by mixing ketamine (50 mg/mL) and xylazine (20 mg/mL) in 5:1. The bladder was then exposed via a midline incision and a hole was made with a 20-G needle to insert a polyethylene tube (PE-50), which tube was sutured to the bladder with cotton thread. The polyethylene tube cannulated into the bladder was cut at a length of about 1 cm, which was connected to a silicon tube (No. 00) and exposed to the dorsum through the skin. The animals were housed in individual cages until they were used for the experiments.
One day after the surgery, the animal was anesthetized with halothane and placed in Ballman cages under restricted conditions. After a three-way cock was connected to the tube cannulated into the bladder, a saline infusion tube was connected to a cystometry tube (resistance to infusion). An electronic scale was placed under the Ballman cages and the micturition volume was measured at the same time. When the anesthetic completely worn off, the infusion of saline into the bladder commenced and the bladder pressure and micturition volume were recorded on a personal computer via an A-D converter (MP-100, BIOPAC Systems) and analyzed using a dedicated software (AcqKnowledge, BIOPAC Systems).
Saline was infused into the bladder at the rate of 6 ml/hr and the infusion was continued for 1 or 2 hours until stable micturition was recorded. In order to enhance the permeability of a drug into the bladder, protamine sulfate (10 mg/mL in PBS) was infused into the bladder for an hour (Chuang Y, et. al., 2003, Urology, 63, 664-670). […] Then, saline was reinfused into the bladder and micturition was recorded at least 2 hours until protamine was completely washed off. […] Mean micturition intervals during from about 30 minutes to about 60 minutes after starting the infusion of CuCl2 were calculated to find a ratio to mean micturition intervals for about 30 minutes before the infusion of CuCl2 (% of the pre-value).

Compound | intracellular calcium levels of CHO/mGPR39 (mouse GPR39) | intracellular calcium levels of CHO/rGPR39 (rat GPR39) | intracellular calcium response in CHO cells without the receptor or with GPCR other than GPR39 [1] | intracellular calcium levels of CHO/hGPR39-GFP (human GPR39) | micturition intervals compared to those prior to the infusion [2]
[Cl][Cd][Cl] [cadmium chloride] | dose-dependently increased | dose-dependently increased | no such response was observed | dose-dependently increased | 
[Cl][Co][Cl] [cobalt chloride] | dose-dependently increased | dose-dependently increased |  |  | 
[Cl-].[Cl-].[Zn+2] [zinc chloride] | dose-dependently increased | dose-dependently increased | no such response was observed | dose-dependently increased | 
protamine sulfate |  |  |  |  | Any substantial change in micturition intervals was noted
